Assay results from patent US20250282749A1 (Tango Therapeutics, Inc., priority 2022, published 2025).

Test system: PRMT5 (SDMA) in HAP1 MTAP-deleted cell line
Assay: SDMA in-cell western assay, HAP1 MTAP-deleted cell line
Type: cell-based
Settings: ratio of SDMA in-cell western IC50 in HAP1 MTAP-intact to IC50 in HAP1 MTAP-deleted cell line
Source text: HAP1 MTAP-intact is a cell line in which endogenous levels of MTAP are expressed, and HAP1 MTAP-deleted is an MTAP-null cell line.

Structure (SMILES) | Hap1 MTAP intact/deleted ratio
CC(C)C(=O)N1C[C@H](c2ccc(F)cc2)N(C(=O)C(=O)Nc2cnc(N)c(C3CC3)c2)C[C@H]1C [Compound 19] | C (an IC50 ratio of less than 15 fold)

Test system: HAP1 MTAP-deleted cell line
Assay: viability assay for the MTAP-deleted cell line
Type: cell-based
Settings: not given

Structure (SMILES) | IC50 [nM]
Cc1cc(NC(=O)C(=O)N2C[C@@H](C)N(C(=O)C(C)(C)C)C[C@@H]2c2ccc(F)cc2)cnc1N (stereo in doubt) [Compound 106, N-(6-amino-5-methylpyridin-3-yl)-2-(2-(4-fluorophenyl)-5-methyl-4-pivaloylpiperazin-1-yl)-2-oxoacetamide] | < 100
Cc1cc(NC(=O)C(=O)N2C[C@@H](C)N(C(=O)C3(C)CC3)C[C@@H]2c2ccc(F)cc2)cnc1N (stereo in doubt) [Compound 108, N-(6-amino-5-methylpyridin-3-yl)-2-(2-(4-fluorophenyl)-5-methyl-4-(1-methylcyclopropanecarbonyl)piperazin-1-yl)-2-oxoacetamide] | < 100

Same assay, conditions: Homo sapiens

Structure (SMILES) | IC50 [nM]
Cc1cc(NC(=O)C(=O)N2C[C@@H](C)N(C(=O)C(C)C)C[C@@H]2c2ccc(F)cc2)cnc1N (racemic) [Compound 157, rac-N-(6-amino-5-methylpyridin-3-yl)-2-(2-(4-fluorophenyl)-4-isobutyryl-5-methylpiperazin-1-yl)-2-oxoacetamide] | 100 to 1000
C[C@@H]1CN(C(=O)C(=O)Nc2cnc(N)c3cn[nH]c23)[C@@H](c2ccccc2)CN1C(=O)C1(C)CC1 (racemic) [Compound 161, N-(4-Amino-1H-pyrazolo[4,3-c]pyridin-7-yl)-2-oxo-2-[rac-(2S,5R)-5-methyl-4-(1-methylcyclopropanecarbonyl)-2-phenyl-piperazin-1-yl]acetamide] | < 100
Cc1cc(NC(=O)C(=O)N2C[C@@H](C)N(C(=O)C(C)C)C[C@@H]2c2ccc(F)cc2)cnc1N (relative stereo) [Compound 20, N-(6-amino-5-methyl-3-pyridyl)-2-[(2S,5R)-2-(4-fluorophenyl)-5-methyl-4-(2-methylpropanoyl)piperazin-1-yl]-2-oxo-acetamide] | 100 to 1000
CC(C)CN1C[C@@H](c2ccc(F)cc2)N(C(=O)C(=O)Nc2cnc(N)c(C3CC3)c2)C[C@@H]1C (single isomer, unassigned) [Compound 26] | > 1000
CC(C)CN1C[C@H](c2ccc(F)cc2)N(C(=O)C(=O)Nc2cnc(N)c(C3CC3)c2)C[C@@H]1C (single isomer, unassigned) [Compound 48] | > 1000
Cc1cc(NC(=O)C(=O)N2CC(C)N(C(=O)C(C)C)C[C@@H]2c2ccc(F)c(F)c2)cnc1N (stereo in doubt) [Compound 23, N-(6-amino-5-methylpyridin-3-yl)-2-((2S,5R)-2-(3,4-difluorophenyl)-4-isobutyryl-5-methylpiperazin-1-yl)-2-oxoacetamide] | > 1000
CC(C)OC(=O)N1C[C@@H](c2ccc(F)cc2)N(C(=O)C(=O)Nc2cnc(N)c(C3CC3)c2)C[C@H]1C (stereo in doubt) [Compound 82, isopropyl 4-(2-((6-amino-5-cyclopropylpyridin-3-yl)amino)-2-oxoacetyl)-5-(4-fluorophenyl)-2-methylpiperazine-1-carboxylate] | > 1000
CC(C)OC(=O)N1C[C@H](c2ccc(F)cc2)N(C(=O)C(=O)Nc2cnc(N)c(C3CC3)c2)C[C@@H]1C (stereo in doubt) [Compound 95, isopropyl 4-(2-((6-amino-5-cyclopropylpyridin-3-yl)amino)-2-oxoacetyl)-5-(4-fluorophenyl)-2-methylpiperazine-1-carboxylate] | > 1000
C[C@@H]1CN(C(=O)C(=O)Nc2cncc3[nH]ncc23)C(c2ccc(F)cc2)CN1C(=O)C(C)(C)C (stereo in doubt) [Compound 103, 2-[(2S,5R)-4-(2,2-dimethylpropanoyl)-2-(4-fluorophenyl)-5-methyl-piperazin-1-yl]-2-oxo-N-(1H-pyrazolo[3,4-c]pyridin-4-yl)acetamide] | > 1000
Cc1cc(NC(=O)C(=O)N2C[C@@H](C)N(C(=O)C(C)(C)C)C[C@@H]2c2ccc(F)cc2)cnc1N [Compound 3, N-(6-amino-5-methylpyridin-3-yl)-2-((2S,5R)-2-(4-fluorophenyl)-5-methyl-4-pivaloylpiperazin-1-yl)-2-oxoacetamide] | < 100
COc1ncc(NC(=O)C(=O)N2C[C@H](C)N(C(=O)C3(C)CC3)C[C@H]2c2ccc(F)cc2)cc1C(N)=O [Compound 5, 5-(2-((2R,5S)-2-(4-fluorophenyl)-5-methyl-4-(1-methylcyclopropanecarbonyl)piperazin-1-yl)-2-oxoacetamido)-2-methoxynicotinamide] | 100 to 1000
Cc1cc(NC(=O)C(=O)N2C[C@@H](C)N(C(=O)C3(C(F)(F)F)CC3)C[C@@H]2c2ccc(F)cc2)cnc1N [Compound 27] | < 100
CC(C)C(=O)N1C[C@H](c2ccccc2)N(C(=O)C(=O)Nc2cnc(N)c3cn[nH]c23)C[C@H]1C [Compound 50] | < 100
C[C@@H]1CN(C(=O)C(=O)Nc2cnc(N)c(C3CC3)c2)[C@@H](c2ccccc2)CN1C(=O)C1(C(F)(F)F)CC1 [Compound 51, N-(6-amino-5-cyclopropylpyridin-3-yl)-2-((2S,5R)-5-methyl-2-phenyl-4-(1-(trifluoromethyl)cyclopropanecarbonyl)piperazin-1-yl)-2-oxoacetamide] | < 100
C[C@H]1CN(C(=O)C(=O)Nc2cnc(N)c(C3CC3)c2)[C@@H](c2ccc(F)cc2)CN1C(=O)CC1CC1 [Compound 56] | > 1000
Cc1cc(NC(=O)C(=O)N2C[C@H](C)N(C(=O)C3(C(F)(F)F)CC3)C[C@H]2c2ccc(F)cc2)cnc1N [Compound 64] | > 1000
COc1ncc(NC(=O)C(=O)N2C[C@@H](C)N(C(=O)C3(C)CC3)C[C@@H]2c2ccc(F)cc2)cc1C(N)=O [Compound 102, 5-(2-((2S,5R)-2-(4-fluorophenyl)-5-methyl-4-(1-methylcyclopropanecarbonyl)piperazin-1-yl)-2-oxoacetamido)-2-methoxynicotinamide] | > 1000
Cc1cc(NC(=O)C(=O)N2C[C@@H](C)N(C(=O)C3(C)CC3)C[C@@H]2c2ccc(F)cc2)cnc1N [Compound 104, N-(6-amino-5-methylpyridin-3-yl)-2-((2S,5R)-2-(4-fluorophenyl)-5-methyl-4-(1-methylcyclopropanecarbonyl)piperazin-1-yl)-2-oxoacetamide] | < 100
C[C@@H]1CN(C(=O)C(=O)Nc2cnc(N)c3cn[nH]c23)[C@@H](c2ccccc2)CN1C(=O)C(C)(C)C [Compound 124, N-(4-amino-1H-pyrazolo[4,3-c]pyridin-7-yl)-2-((2S,5R)-5-methyl-2-phenyl-4-pivaloylpiperazin-1-yl)-2-oxoacetamide] | < 100
C[C@@H]1CN(C(=O)C(=O)Nc2cnc(N)c(C3CC3)c2)[C@H](c2ccc(F)cc2)CN1C(=O)CC1CC1 [Compound 136] | > 1000
C[C@@H]1CN(C(=O)C(=O)Nc2cnc(N)c(C3CC3)c2)[C@@H](c2ccc3scnc3c2)CN1C(=O)C1(C(F)(F)F)CC1 [Compound 141, N-(6-amino-5-cyclopropyl-3-pyridyl)-2-[(2S,5R)-2-(1,3-benzothiazol-5-yl)-5-methyl-4-[1-(trifluoromethyl)cyclopropanecarbonyl]piperazin-1-yl]-2-oxo-acetamide] | < 100
C[C@@H]1CN(C(=O)C(=O)Nc2cnc(N)c3cn[nH]c23)[C@@H](c2ccccc2)CN1C(=O)C1(C(F)(F)F)CC1 [Compound 155] | < 100
